From ChEMBL document CHEMBL3860026, “Depsidones from Lichens as Natural Product Inhibitors of M-Phase Phosphoprotein 1, a Human Kinesin Required for Cytokinesis” (J Nat Prod, 2016)
Converted amounts (≈) assume the structure as drawn. One block for each compound: values may come before it. The source made the active and inactive calls. The calls are words filed in the database; no cut-off is given here.

Legend:
[1] = Drug level in human liver microsomes treated with norlobaridone at 3 uM in presence of NADPH after 5 to 45 mins by LC-MS/MS method; format: ADME
[2] = Cytotoxicity against human HCT116 cells assessed as growth inhibition after 72 hrs by Alamar Blue assay; format: functional, cell-based; settings: HCT-116, 72 h
[3] = Cytotoxicity against human J82 cells assessed as growth inhibition after 72 hrs by Alamar Blue assay; format: functional, cell-based; settings: J82, 72 h
[4] = Cytotoxicity against human UM-UC-3 cells assessed as growth inhibition after 72 hrs by Alamar Blue assay; format: functional, cell-based; settings: UMUC3, 72 h
[5] = Cytotoxicity against human K562 cells assessed as growth inhibition after 72 hrs by Alamar Blue assay; format: functional, cell-based; settings: K562, 72 h
[6] = Cytotoxicity against human BxPC3 cells assessed as growth inhibition after 72 hrs by Alamar Blue assay; format: functional, cell-based; settings: BXPC-3, 72 h
[7] = target: T1, Kinesin-like protein KIF20B (Homo sapiens, UniProt Q96Q89); test: Inhibition of basal ATPase activity of N-terminal His6-tagged/SUMO-fused human MPP1 motor domain (57 to 491 residues) expressed in Escherichia coli BL21 CodonPlus by pyruvate kinase/lactate dehydrogenase-linked assay
T1 sequence (Q96Q89 whole entry, the tested form may be a part): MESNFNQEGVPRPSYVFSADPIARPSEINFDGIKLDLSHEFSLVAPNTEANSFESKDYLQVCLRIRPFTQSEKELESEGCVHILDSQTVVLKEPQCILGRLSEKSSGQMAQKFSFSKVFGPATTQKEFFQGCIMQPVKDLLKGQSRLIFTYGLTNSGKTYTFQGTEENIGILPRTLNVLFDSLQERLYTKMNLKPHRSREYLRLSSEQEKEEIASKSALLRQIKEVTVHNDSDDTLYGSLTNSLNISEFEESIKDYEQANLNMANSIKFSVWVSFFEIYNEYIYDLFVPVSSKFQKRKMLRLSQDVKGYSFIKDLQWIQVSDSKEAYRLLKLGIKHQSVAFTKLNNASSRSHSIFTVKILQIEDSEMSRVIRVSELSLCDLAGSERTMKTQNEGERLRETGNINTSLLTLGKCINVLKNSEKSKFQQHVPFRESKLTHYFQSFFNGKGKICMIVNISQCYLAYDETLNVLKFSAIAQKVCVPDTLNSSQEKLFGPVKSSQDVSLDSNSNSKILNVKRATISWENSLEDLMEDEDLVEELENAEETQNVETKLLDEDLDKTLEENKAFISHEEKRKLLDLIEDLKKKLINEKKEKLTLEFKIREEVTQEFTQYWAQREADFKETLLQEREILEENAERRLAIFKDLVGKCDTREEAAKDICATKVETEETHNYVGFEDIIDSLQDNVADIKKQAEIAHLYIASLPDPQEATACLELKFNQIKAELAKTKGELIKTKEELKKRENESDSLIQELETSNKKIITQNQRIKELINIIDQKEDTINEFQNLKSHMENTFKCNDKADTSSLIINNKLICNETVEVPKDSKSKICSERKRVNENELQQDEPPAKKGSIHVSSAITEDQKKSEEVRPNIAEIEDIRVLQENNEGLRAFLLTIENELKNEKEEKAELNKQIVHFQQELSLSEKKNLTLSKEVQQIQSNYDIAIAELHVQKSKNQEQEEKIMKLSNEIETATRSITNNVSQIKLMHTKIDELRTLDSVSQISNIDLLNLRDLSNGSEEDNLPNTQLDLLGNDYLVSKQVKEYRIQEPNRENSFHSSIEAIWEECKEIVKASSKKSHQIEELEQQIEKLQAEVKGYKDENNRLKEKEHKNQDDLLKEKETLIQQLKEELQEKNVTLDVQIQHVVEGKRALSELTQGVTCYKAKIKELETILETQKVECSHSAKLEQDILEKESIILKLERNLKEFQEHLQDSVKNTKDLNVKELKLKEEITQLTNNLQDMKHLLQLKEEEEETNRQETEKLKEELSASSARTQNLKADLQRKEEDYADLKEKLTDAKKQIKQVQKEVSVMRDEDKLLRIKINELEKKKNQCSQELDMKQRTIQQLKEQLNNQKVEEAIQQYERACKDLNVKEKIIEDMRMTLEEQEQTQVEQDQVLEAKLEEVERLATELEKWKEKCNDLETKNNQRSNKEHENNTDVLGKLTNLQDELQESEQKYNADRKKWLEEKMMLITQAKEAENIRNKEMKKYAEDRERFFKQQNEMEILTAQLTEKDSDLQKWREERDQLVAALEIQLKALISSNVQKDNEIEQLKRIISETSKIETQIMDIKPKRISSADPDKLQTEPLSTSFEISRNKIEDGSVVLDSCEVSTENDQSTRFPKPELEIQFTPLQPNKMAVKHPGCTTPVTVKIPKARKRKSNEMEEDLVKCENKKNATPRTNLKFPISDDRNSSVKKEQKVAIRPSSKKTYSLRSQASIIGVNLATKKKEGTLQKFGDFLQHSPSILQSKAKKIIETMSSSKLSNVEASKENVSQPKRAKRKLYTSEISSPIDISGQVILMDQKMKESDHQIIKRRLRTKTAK

[8] = target: T1, Kinesin-like protein KIF20B; test: Inhibition of microtubule-stimulated ATPase activity of N-terminal His6-tagged/SUMO-fused human MPP1 motor domain (57 to 491 residues) expressed in Escherichia coli BL21 CodonPlus by pyruvate kinase/lactate dehydrogenase-linked assay
[9] = target: T1, Kinesin-like protein KIF20B; test: Inhibition of basal ATPase activity of N-terminal His6-tagged/SUMO-fused human MPP1 motor domain (2 to 477 residues) expressed in Escherichia coli BL21 CodonPlus by pyruvate kinase/lactate dehydrogenase-linked assay
[10] = target: T1, Kinesin-like protein KIF20B; test: Inhibition of microtubule-stimulated ATPase activity of N-terminal His6-tagged/SUMO-fused human MPP1 motor domain (2 to 477 residues) expressed in Escherichia coli BL21 CodonPlus by pyruvate kinase/lactate dehydrogenase-linked assay
[11] = target: T1, Kinesin-like protein KIF20B; test: Inhibition of basal ATPase activity of N-terminal His6-tagged/SUMO-fused human MPP1 motor domain (57 to 491 residues) expressed in Escherichia coli BL21 CodonPlus in presence of 0.1% Tween-20 by pyruvate kinase/lactate dehydrogenase-linked assay
[12] = target: T1, Kinesin-like protein KIF20B; test: Inhibition of basal ATPase activity of N-terminal His6-tagged/SUMO-fused human MPP1 motor domain (2 to 477 residues) expressed in Escherichia coli BL21 CodonPlus in presence of 0.1% Tween-20 by pyruvate kinase/lactate dehydrogenase-linked assay
[13] = Solubility of the compound in phosphate buffered saline at pH 2 after 2 hrs by turbidimetric method; format: physicochemical
[14] = Solubility of the compound in phosphate buffered saline at pH 6 after 2 hrs by turbidimetric method; format: physicochemical
[15] = Solubility of the compound in phosphate buffered saline at pH 7.4 after 2 hrs by turbidimetric method; format: physicochemical
[16] = n-octanol-buffer distribution co-efficient, log D of the compound at pH 7.4 by shake flask method; format: physicochemical
[17] = Apparent passive permeability of the compound at 10 uM after 5 hrs by PAMPA; format: ADME; settings: PAMPA
[18] = Passive permeability of the compound assessed as compound recovery at 10 uM after 5 hrs by PAMPA; format: ADME; settings: read-out: Drug recovery
[19] = Efflux ratio of apparent permeability across basolateral to apical over apical to basolateral side in human Caco2 cells at 10 uM after 2 hrs by LC-MS/MS method; format: ADME, cell-based; settings: Caco-2
[20] = Intrinsic clearance in human liver microsomes assessed per mg of protein at 3 uM after 5 to 60 mins by LC-MS/MS method; format: ADME; settings: read-out: CLH
[21] = Intrinsic clearance in mouse liver microsomes assessed per mg of protein at 3 uM after 5 to 60 mins by LC-MS/MS method; format: ADME; settings: read-out: CLH
[22] = Half life in human liver microsomes at 3 uM by LC-MS/MS method; format: ADME
[23] = Half life in mouse liver microsomes at 3 uM by LC-MS/MS method; format: ADME
[24] = Drug metabolism in human liver microsomes assessed as 2-(2,4-dihydroxy-6-pentylphenoxy)-4-hydroxy-6-pentanoylbenzoic acid formation at 3 uM in presence of NADPH after 5 to 45 mins by LC-MS/MS method; format: ADME
[25] = Drug metabolism in human liver microsomes assessed as 3,8-dihydroxy-6-(5-hydroxypentyl)-1-pentanoyl-11H-dibenzo[b,e][1,4]dioxepin-11-one formation at 3 uM in presence of NADPH after 5 to 45 mins by LC-MS/MS method; format: ADME
[26] = Drug metabolism in human liver microsomes assessed as methyl 2,4-dihydroxy-6-pentanoylbenzoate formation at 3 uM in presence of NADPH after 5 to 45 mins by LC-MS/MS method; format: ADME

SMILES: CCCCC(=O)c1cc(O)cc2c1C(=O)Oc1cc(O)cc(CCCCCO)c1O2
Drug metabolism [1]: Metabolite_Detected

SMILES: CCCCCc1c2c(cc(O)c1C(=O)O)OC(=O)c1c(cc(OC)cc1C(=O)CCCC)O2 [LOBARIC ACID]
EC50 [2]: 0.8 µM
EC50 [3]: 3.6 µM
EC50 [4]: 3.7 µM
EC50 [5]: 1.4 µM
EC50 [6]: 1.6 µM

SMILES: Cc1cc(O)cc2c1C(=O)Oc1cc3c(c(O)c1O2)C(=O)OC3 [VARIOLARIC ACID]
EC50 [2]: > 100 µM
EC50 [3]: > 50 µM
EC50 [4]: > 100 µM
EC50 [5]: > 100 µM

SMILES: CCCCCc1cc(O)cc2c1Oc1cc(O)cc(C(=O)CCCC)c1C(=O)O2
IC50 [7]: 18.7 µM
Imax [7]: 75%
IC50 [8]: 24.4 µM
Imax [8]: 90%
IC50 [9]: 10.8 µM
Imax [9]: 80%
IC50 [10]: 7.6 µM
Imax [10]: 90%
inhibition [11]: Active
inhibition [12]: Active
EC50 [2]: 42.9 µM
EC50 [3]: 48.3 µM
EC50 [4]: 30.5 µM
EC50 [5]: 43.7 µM
EC50 [6]: 33.1 µM
solubility kinetic at 2 h [13]: 6.5 µM (≈ 2.59 µg/mL)
solubility kinetic at 2 h [14]: 3.75 µM (≈ 1.49 µg/mL)
solubility kinetic at 2 h [15]: 37.5 µM (≈ 14.9 µg/mL)
logD [16]: 3.5
Papp at 5 h, 10 µM [17]: 32.4 ×10⁻⁶ cm/s
recovery at 5 h, 10 µM [18]: 95.1%
efflux ratio at 2 h, 10 µM [19]: 0.51
microsomal CLint at 3 µM [20]: 393 µL/min/mg
microsomal CLint at 3 µM [21]: 452 µL/min/mg
half-life at 3 µM [22]: 3.5 min
half-life at 3 µM [23]: 3.1 min
Drug metabolism [24]: Metabolite_Detected
Drug metabolism [25]: Metabolite_Detected
Drug metabolism [26]: Metabolite_Detected

Next, values leading:

Drug metabolism [1]: Metabolite_Detected
SMILES: CCCCC(=O)c1cc(O)cc(O)c1C(=O)OC

Drug metabolism [1]: Metabolite_Detected
SMILES: CCCCCc1cc(O)cc(O)c1Oc1cc(O)cc(C(=O)CCCC)c1C(=O)O
